This test concerns the target T1, E. coli gamma-glutamylcysteine synthetase (Escherichia coli, UniProt P0A6W9).
T1 construct: made in house
Nature of the test: Inactivation of E. coli gamma-GCS by homocysteine sulfoximines (preincubation with ATP, residual activity by coupled PK/LDH assay). Format: biochemical. The note with it: 100 μM inhibitor. Here is the method: E. coli gamma-GCS was isolated from bacterial cells engineered to overexpress the enzyme; the isolation procedure was similar to that used previously to isolate mammalian gamma-GCS. […] The enzyme was assayed in reaction mixtures (final volume=1.0 ml) containing: 150 mM Tris·HCl, pH 8.2, 100 mM KCl, 25 mM MgCl2, 7.5 mM ATP, 7.5 mM phosphoenolpyruvate, 0.3 mM EDTA, 10 mM L-glutamate, 10 mM L-α-aminobutyrate (an L-cysteine analog), 0.3 mM NADH, 5 IU pyruvate kinase, and 5 IU lactate dehydrogenase. Reaction was initiated by adding gamma-GCS; in control studies, L-α-aminobutyrate was omitted from the reaction mixture. In this assay, pyruvate kinase (PK) and lactate dehydrogenase (LDH) are added in excess to detect formation of ADP, one of the products of the gamma-GCS reaction. The relevant enzyme reactions are shown as equations 1–3 below. Oxidation of NADH to NAD^+ is followed and quantitated spectrophotometrically at 340 nm (1 μmol oxidation gives ΔOD=−6.2) and is directly proportional to product formation by gamma-GCS. [drawing 2]
Inhibition by homocysteine sulfoximines was carried out by preincubating the E. coli gamma-GCS with potential inhibitors in the presence of ATP and then removing aliquots of that mixture at specific times and assaying for residual activity using the assay procedure described above. The preincubation reaction mixtures contained (final volume=400 μl) the following: 210 mM Tris·HCl, pH 8.2, 142 mM KCl, 36 mM MgCl2, 10 mM ATP, 0.4 mM EDTA, various amounts of sulfoximine, and gamma-GCS. At intervals, 50 μl aliquots were removed and added to 1.0 ml assay reaction mixtures to determine residual activity spectrophotometrically. Results of a study indicate that E. coli gamma-GCS loses about 27% of its activity over 30 minutes in the absence of added inhibitors; this loss of activity represents an inherent instability in the enzyme when incubated under these reaction conditions in this particular experiment. […]

T1 sequence (P0A6W9 whole entry): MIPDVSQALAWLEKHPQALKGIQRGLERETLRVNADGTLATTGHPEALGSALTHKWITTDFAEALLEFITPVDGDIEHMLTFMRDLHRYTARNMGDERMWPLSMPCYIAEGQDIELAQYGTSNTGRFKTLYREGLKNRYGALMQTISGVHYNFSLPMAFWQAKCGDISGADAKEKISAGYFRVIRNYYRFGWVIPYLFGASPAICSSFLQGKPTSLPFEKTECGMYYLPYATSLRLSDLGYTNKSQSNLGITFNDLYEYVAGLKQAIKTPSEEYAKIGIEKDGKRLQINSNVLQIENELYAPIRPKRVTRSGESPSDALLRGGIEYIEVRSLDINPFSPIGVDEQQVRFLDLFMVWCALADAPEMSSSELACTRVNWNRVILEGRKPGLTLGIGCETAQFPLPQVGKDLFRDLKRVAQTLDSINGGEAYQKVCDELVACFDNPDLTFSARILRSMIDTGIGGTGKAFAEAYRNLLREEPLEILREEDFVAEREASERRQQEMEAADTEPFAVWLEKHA

For `CCCCS(=N)(=O)CC[C@H](N)C(=O)O` (stereo partly drawn) [L-buthionine-S-sulfoximine], the “inactivation of E. coli gamma-GCS” value runs as follows: (10 min preincubation) 89%; (30 min preincubation) “virtually complete inactivation”.
